From patent US20100234427A1 (priority 2006, published 2010)
Structures can show the parent of a compound that is named as a salt.

What was measured:
Assay in all cases: biochemical
[1] = target: T1, noradrenaline (NA) reuptake in synaptosomes (Rattus norvegicus, UniProt Q63380)
T1 construct: in synaptosomes as described in WO 97/16451; from tissue

[2] = target: T2, serotonine (5-HT) reuptake in synaptosomes (Rattus norvegicus, UniProt P31652)
T2 construct: in synaptosomes as described in WO 97/16451; from tissue

[3] = target: T3, dopamine (DA) reuptake in synaptosomes (Rattus norvegicus, UniProt P23977)
T3 construct: in synaptosomes as described in WO 97/16451; from tissue
T3 sequence (P23977 whole entry): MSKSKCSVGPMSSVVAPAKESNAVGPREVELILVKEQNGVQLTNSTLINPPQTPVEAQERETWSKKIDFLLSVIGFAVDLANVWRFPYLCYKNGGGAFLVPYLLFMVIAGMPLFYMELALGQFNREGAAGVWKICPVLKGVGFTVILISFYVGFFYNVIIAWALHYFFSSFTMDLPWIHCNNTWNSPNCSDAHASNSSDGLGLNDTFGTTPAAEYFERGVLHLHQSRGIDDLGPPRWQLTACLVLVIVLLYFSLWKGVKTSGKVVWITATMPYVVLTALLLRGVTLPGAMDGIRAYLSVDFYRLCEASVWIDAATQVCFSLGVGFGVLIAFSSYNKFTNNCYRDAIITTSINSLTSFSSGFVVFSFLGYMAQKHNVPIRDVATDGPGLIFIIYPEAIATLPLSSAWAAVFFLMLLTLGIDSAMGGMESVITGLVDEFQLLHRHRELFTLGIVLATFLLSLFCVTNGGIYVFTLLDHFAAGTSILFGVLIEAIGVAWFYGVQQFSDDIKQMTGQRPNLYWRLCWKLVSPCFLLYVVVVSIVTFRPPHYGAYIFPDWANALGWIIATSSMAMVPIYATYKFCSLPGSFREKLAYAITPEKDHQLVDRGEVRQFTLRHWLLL

T1 sequence (Q63380 1-617): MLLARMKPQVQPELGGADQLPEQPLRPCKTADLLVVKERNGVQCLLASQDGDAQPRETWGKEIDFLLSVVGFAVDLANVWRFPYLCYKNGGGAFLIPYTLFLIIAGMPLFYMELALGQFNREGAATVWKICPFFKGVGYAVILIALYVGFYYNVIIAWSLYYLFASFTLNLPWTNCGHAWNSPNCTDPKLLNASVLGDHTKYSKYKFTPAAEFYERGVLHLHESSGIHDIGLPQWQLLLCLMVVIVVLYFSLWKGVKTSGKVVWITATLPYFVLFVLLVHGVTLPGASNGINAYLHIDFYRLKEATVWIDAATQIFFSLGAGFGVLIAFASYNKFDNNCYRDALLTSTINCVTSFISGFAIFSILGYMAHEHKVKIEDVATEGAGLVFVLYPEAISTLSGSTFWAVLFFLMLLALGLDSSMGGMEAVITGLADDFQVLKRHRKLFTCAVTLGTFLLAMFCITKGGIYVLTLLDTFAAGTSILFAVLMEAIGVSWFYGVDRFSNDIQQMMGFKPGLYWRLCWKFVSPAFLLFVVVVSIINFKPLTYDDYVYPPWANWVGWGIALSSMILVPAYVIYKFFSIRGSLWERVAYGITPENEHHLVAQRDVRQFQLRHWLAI
T2 sequence (P31652 whole entry): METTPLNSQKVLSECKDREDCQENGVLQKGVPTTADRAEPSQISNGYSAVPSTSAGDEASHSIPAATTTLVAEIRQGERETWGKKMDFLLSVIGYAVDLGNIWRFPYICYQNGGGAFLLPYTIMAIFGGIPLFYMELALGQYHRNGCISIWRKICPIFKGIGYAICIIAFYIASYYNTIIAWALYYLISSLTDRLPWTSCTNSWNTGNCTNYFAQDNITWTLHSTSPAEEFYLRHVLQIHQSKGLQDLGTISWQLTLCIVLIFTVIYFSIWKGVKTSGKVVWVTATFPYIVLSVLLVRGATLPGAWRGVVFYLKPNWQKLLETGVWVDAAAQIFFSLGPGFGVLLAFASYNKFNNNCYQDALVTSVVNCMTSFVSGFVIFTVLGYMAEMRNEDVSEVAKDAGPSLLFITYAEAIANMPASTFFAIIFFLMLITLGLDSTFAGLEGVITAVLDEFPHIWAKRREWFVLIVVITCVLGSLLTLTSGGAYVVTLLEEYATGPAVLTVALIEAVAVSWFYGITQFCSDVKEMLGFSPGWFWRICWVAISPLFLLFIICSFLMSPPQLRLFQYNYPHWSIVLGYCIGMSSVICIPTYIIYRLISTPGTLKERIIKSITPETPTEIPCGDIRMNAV

CCC(=O)N(CC1CCN(CCc2ccc(F)cc2)CC1)c1ccccc1 [Compound 12j, N-{1-[2-(4-Fluoro-phenyl)-ethyl]-piperidin-4-ylmethyl}-N-phenyl-propionamide fumaric acid salt]
IC50 [1]: 280 nM | IC50 [2]: 5500 nM | IC50 [3]: 480 nM
